Experimental findings from EP0470794A1, “Process for the preparation of nitriles” (ZENECA LIMITED, priority 1990, dated 1992) are described below.

The subject of assay [1] is AII-induced contractions of isolated rabbit aorta. Kind of assay: Test B: antagonism of AII-induced contractions of isolated aorta. Format: cell-based. The note with it: Oryctolagus cuniculus, 37°C, average, read-out: average pA₂ (converted). The procedure:
In general, compounds of formula VI as defined above show significant inhibition in Test A at a concentration of 50 micromolar or much less. Test B: This in vitro test involves the measurement of the antagonistic effects of the test compound against AII-induced contractions of isolated rabbit aorta, maintained in a physiological salt solution at 37°C. In order to ensure that the effect of the compound is specific to antagonism of AII, the effect of the test compound on noradrenaline-induced contractions may also be determined in the same preparation.

The test system of assay [2] is angiotensin II-induced pressor responses. Kind of assay: Test C: antagonism of angiotensin II-induced pressor responses in vivo. The note with it: Rattus norvegicus, iv; i.v. administration; rats; read-out: ED₅₀. The procedure: In general, compounds of formula VI as defined above show significant inhibition in Test B at a final concentration of 50 micromolar or much less. Test C: This in vivo test involves using terminally-anaesthetised or conscious rats in which an arterial catheter has been implanted under anaesthesia for the measurement of changes in blood pressure. The AII antagonistic effects of the test compound following oral or parenteral administration, are assessed against angiotensin II-induced pressor responses. To ensure that the effect is specific, the effect of the test compound on vasopressin-induced pressor responses may also be determined in the same preparation.

Regarding `Cc1cc(OCc2ccc(-c3ccccc3-c3nnn[nH]3)cc2)c2ccccc2n1.Cl` [2-methyl-4-[(2′-(1H-tetrazol-5-yl)biphenyl-4-yl)methoxy]quinoline hydrochloride], the Kb in assay [1] is 1.12 nM. In assay [2], the ED50 was determined as 0.5 mg/kg.
